Source: patent publication US8426385B2 (Hainan Hdeton Science and Technology Co. Ltd., priority 2006, dated 2013)
Converted amounts (≈) assume the structure as drawn. One block for each compound: values may come before it.

Assays:
[1] = about 50% cyclodextrin aqueous solution, pure water; cited from earlier work
[2] = Determination of inclusion stability constant Ka by UV spectrophotometry; assay type: physicochemical; details: 234 nm
Procedure: The inclusion stability constant Ka is used to determine the degree of inclusion and UV spectrophotometry is one of common methods to determine Ka. […] Meanwhile, the changes of Ka after adding ethanol are determined in the test, and the Ka values of different cyclodextrins are shown in Table 1.

[3] = aqueous solution; UV spectrum study; cited from earlier work
[4] = phase solubility studies; cited from earlier work
[5] = Inclusion solubilization test (paclitaxel solubility in cyclodextrin solution); assay type: physicochemical; details: 25° C.; for Paclitaxel solubility in cyclodextrin solution: 72 h
Text: A standard curve was plotted by A and concentration C (mg/ml) (A=393.2 C−0.0123; r=0.9998).

[6] = Animal body weight in the S180 anti-tumor test; details: S180 solid tumor, Kunming mice, intraperitoneal, 7 days
[7] = Solid inclusion stability, 5-day acceleration test (HPLC content); assay type: physicochemical
Procedure: (§1) HPLC chromatographic conditions: chromatographic column ODS C18 (250 mm×4.6 mm); mobile phase: methanol:water:acetonitrile (20:30:50); flow rate: 1.0 ml/min; detection wavelength: 228 nm; detection time: 30.00 min; detection sensitivity: 1.0000 AUFS.
Samples were put in a sealed transparent container and then placed in an illumination box equipped with fluorescent light of 4500±500 LX illumination intensity for 5 days. Sampling inspection analysis was conducted, and the test results were compared with the samples of 0 day.
Samples were placed in a clean sealed container at temperature of 60° C. for 5 days. Sampling inspection analysis was conducted, and the test results were compared with the samples of 0 day.
Samples were placed in a sealed container of constant humidity at temperature of 25° C. and relative humidity of 90±5% for 5 days. Sampling inspection analysis was conducted, and the test results were compared with the samples of 0 day.

[8] = test system: S180 cells; experiment: In vivo anti-tumor effect, S180 solid tumor model; details: Kunming mice, intraperitoneal, 7 days, 5 mg/kg dose (printed for the inclusion)
[9] = Paclitaxel stability test in solution (HPLC assay); assay type: physicochemical; details: mobile phase pH=6.50, diluted 100 times
Procedure: as §1
The sample solutions had stable chemical properties and the content was basically unchanged.

[10] = cited from earlier work
[11] = cyclodextrin concentration 31 %

first-level apparent stability constant Ka of cyclodextrin/paclitaxel ([2]; 60% EtOH): 4646 M⁻¹ | first-level apparent stability constant Ka of cyclodextrin/paclitaxel ([2]; H2O): 1325 M⁻¹
Compound: hydroxypropyl-β-cyclodextrin
paclitaxel solubility [1]: 3400 µg/mL | inclusion constant [3]: 3030 M⁻¹ | dual-inclusion constant with paclitaxel [4]: 7965 M^−

first-level apparent stability constant Ka of cyclodextrin/paclitaxel ([2]; H2O): 413 M⁻¹
Compound: OC[C@H]1O[C@@H]2O[C@H]3[C@H](O)[C@@H](O)[C@@H](O[C@H]4[C@H](O)[C@@H](O)[C@@H](O[C@H]5[C@H](O)[C@@H](O)[C@@H](O[C@H]6[C@H](O)[C@@H](O)[C@@H](O[C@H]7[C@H](O)[C@@H](O)[C@@H](O[C@H]8[C@H](O)[C@@H](O)[C@@H](O[C@H]1[C@H](O)[C@H]2O)O[C@@H]8CO)O[C@@H]7CO)O[C@@H]6CO)O[C@@H]5CO)O[C@@H]4CO)O[C@@H]3CO [β-cyclodextrin]

Compound: OC[C@H]1O[C@@H]2O[C@H]3[C@H](O)[C@@H](O)[C@@H](O[C@H]4[C@H](O)[C@@H](O)[C@@H](O[C@H]5[C@H](O)[C@@H](O)[C@@H](O[C@H]6[C@H](O)[C@@H](O)[C@@H](O[C@H]7[C@H](O)[C@@H](O)[C@@H](O[C@H]8[C@H](O)[C@@H](O)[C@@H](O[C@H]9[C@H](O)[C@@H](O)[C@@H](O[C@H]1[C@H](O)[C@H]2O)O[C@@H]9CO)O[C@@H]8CO)O[C@@H]7CO)O[C@@H]6CO)O[C@@H]5CO)O[C@@H]4CO)O[C@@H]3CO [γ-cyclodextrin]
dual-inclusion constant with paclitaxel [4]: 785 M⁻¹

Compound: CC(=O)O[C@H]1C(=O)[C@@]2(C)[C@H]([C@H](OC(=O)c3ccccc3)[C@]3(O)C[C@H](OC(=O)[C@H](O)[C@@H](NC(=O)c4ccccc4)c4ccccc4)C(C)=C1C3(C)C)[C@]1(OC(C)=O)CO[C@@H]1C[C@@H]2O [Paclitaxel, (2S,5R,7S,10R,13S)-10,20-bi(acetoxy)-2-benzoyl-oxy-1,7-dihydroxy-9-oxo-5,20-epoxy taxanes-11-ene-13-radical(3S)-3-benzoyl amino-3-phenyl-D-lactic acid ester]
solubility at 72 h ([5]; thermodynamic from solid, pure water, cyclodextrin concentration 0 %): 0.589 µg/mL (≈ 0.69 µM) | effect on animal body weight [6]: reduce the animal body weight | weight loss of animals compared with the inclusion group [6]: greater | Content ([7]; 0 day): 99.748% | Content ([7]; High humidity, 25° C., RH 90±5%, 5 days): 89.336% | Content ([7]; High temperature, 60° C., 5 days): 91.569% | Content ([7]; Light, 4500±500 LX, 5 days): 90.346% | anti-tumor rate [8]: 82.77% | Content in aqueous solution ([9]; 0 h): 99.745% | Content in aqueous solution ([9]; 2 h): 99.700% | Content in aqueous solution ([9]; 4 h): 99.577% | Content in aqueous solution ([9]; 6 h): 99.648% | Content in aqueous solution ([9]; 8 h): 99.608%

Paclitaxel solubility in cyclodextrin solution ([5]; cyclodextrin concentration 25 %): 9324 µg/mL | Paclitaxel solubility in cyclodextrin solution [5, 11]: 10182 µg/mL | first-level apparent stability constant Ka of cyclodextrin/paclitaxel ([2]; 60% EtOH): 9367 M⁻¹ | first-level apparent stability constant Ka of cyclodextrin/paclitaxel ([2]; H2O): 5396 M⁻¹
Compound: sulfobutyl-β-cyclodextrin
water-solubility [10]: > 50 g/100 g H2O

Paclitaxel solubility in cyclodextrin solution [5, 11]: 11177 µg/mL | first-level apparent stability constant Ka of cyclodextrin/paclitaxel ([2]; 60% EtOH): 19722 M⁻¹ | first-level apparent stability constant Ka of cyclodextrin/paclitaxel ([2]; H2O): 14121 M⁻¹
Compound: hydroxypropyl-sulfobutyl-β-cyclodextrin
